Laboratory results: article PMC10714334, “Developing multispecies quorum-sensing modulators based on the Streptococcus mitis competence-stimulating peptide” (The Journal of Biological Chemistry, 2023)
Non-standard residues stand in square brackets, D forms with d. Residues, ends and D or L forms follow the SMILES beside them. No end group written: not given here.

Experiments:
[1] = test system: pneumococcus ComD1 receptor; conditions: cited from earlier work
Text: (§1) Table 5 EC50 or IC50 values of select Streptococcus mitis-CSP-2–based pneumococcal QS modulators against the pneumococcus ComD1 and ComD2 and the S. mitis ComD-2 receptors ^a | column: Streptococcus pneumoniae ^b / ComD1 / EC50 or IC50∗ (nM) || In our previous work, we utilized the S. mitis-CSP-2 scaffold to develop analogs capable of modulating the two pneumococcal ComD receptors at low nanomolar concentrations ([2]). We wanted to evaluate whether the optimization of the S. mitis-CSP-2 scaffold to the pneumococcus ComD receptors affected the ability of the modified analogs to interact with the S. mitis ComD-2 receptor.

[2] = test system: pneumococcus ComD2 receptor; conditions: cited from earlier work
Text: as §1, with “/ ComD2” for “/ ComD1”

[3] = molecular target: S. mitis ComD-2 receptor; test: luminescence reporter competitive inhibition assay (comX expression); format: cell-based, Streptococcus mitis; conditions: same reporter strain; competition against 1 μM native S. mitis-CSP-2; 30 min at 37 °C; triplicate on three separate days
Procedure: As a positive control, 2 μl of S. mitis-CSP-2 and 2 μl of DMSO were added to the same well in triplicate. As a negative control, 4 μl of DMSO was added in triplicate. Then, 2 μl of 15 mg/ml D-luciferin in distilled water was added to each experimental or control well, after which 194 μl of bacteria was added, and the plate was incubated for 30 min at 37 °C. Following incubation, the A600 and luminescence of each experimental well were measured. Results were reported as percent activation, which is the ratio between the luminescence (presented as relative luminescence units, RLU/A600) of the analog and that of the positive control. […] GraphPad Prism was used to calculate the IC50 values, which are the concentration of inhibitor where the response (or binding) is reduced by half. Experiments were performed in triplicate on three separate days.
Antagonism assays were performed at 10 μM concentration of peptides against 1 µM concentration of S. mitis-CSP-2. S. mitis-CSP-2 (1 µM) was used as the positive control (100%) while DMSO as the negative control (0%). For all figures, comX expression is presented as relative luminescence units (RLU) divided by measured cultural optical density (OD). Percent (%) ComD activation was measured by normalizing the RLU/OD value obtained for each peptide to that of the native S. mitis-CSP-2. The results are averages from three replicates and representative of three independent experiments. Error bars represent the standard error of the mean of nine values.
Figure S-8. Primary antagonism screening assay data for t he S. mitis-CSP-2 alanine scan and D-amino acid […]
determine its IC50 value.
Figure S-9. Primary antagonism screening assay data for t he S. mitis-CSP-2 truncated analogs . S. mitis- […]

[4] = test system: defibrinated rabbit red blood cells; test: hemolysis assay; format: cell-based; conditions: mean ± S.D., SD
Procedure: A single colony of S. mitis ATCC 49456 was grown for 16 h at 37 °C with 5% CO2 in 5 mL THY media (pH 7.3). Overnight cultures were then diluted 1:10 in fresh THY media. Samples were prepared in clear bottom 96 -well microtiter plates. Experimental samples were prepared by adding 196 µL of the 1:10 diluted culture and 2 µL of a 1 mM S. mitis-CSP-2 and the lead S. mitis-CSP-2 analogs (lead activator, S. mitis-CSP-2-n11, and lead inhibitor, S. mitis-CSP-2-E1Af10r16), or 196 µL of fresh THY media and 2 µL of a 1 mM S. mitis-CSP-2/ S. mitis-CSP-2 analog stock.
Two µL of DMSO was added to each well. A positive control was prepared by adding 2 µL of a 1% Triton X solution and 2 µL of DMSO in 196 µL THY media, and negative controls were prepared by adding 4 µL DMSO in either 196 µL 1:10 diluted culture or 196 µL THY media. The 96-well microtiter plate was then incubated for 2 h at 37 °C with 5% CO 2, after which the optical density at 600 nm (OD600) was recorded and hemolysis was assessed. A 1 mL portion of defibrinated rabbit red blood cells ( VWR International) was aliquoted into a sterile 1.5 mL microcentrifuge tube, and centrifuged at 2,000 rpm for 2 min. Following centrifugation, the top layer was aliquoted off, and red blood cells were gently washed with sterile1 mL 1X PBS. This process was repeated for a total of three times, until following centrifugation the top layer was mostly clear. Washed red blood cells were resuspended in sterile 1 mL 1X PBS solution, and a 15 µL aliquot was added to each well of the 96 -well microtiter plate. The plate was then incubated for 30 min at 37 °C. Following incubation, the plate was centrifuged for 4 min at 4 °C at 1600 rpm .
Experimental wells were then diluted 1:5 in distilled water to prevent saturation of the detector by the positive control. The absorbance at 420 nm (OD420) was then measured for each well.
Experiments were performed in triplicate on three separate days. Data are presented as the percent hemolysis relative to the .01% Triton X positive control. Results are expressed as the mean +/ - the standard deviation of three independent experiments. […]

[5] = peptide alone with S. mitis ATCC 49456 culture

Q: What does the source list for “AIRQTHNIFFFLFKRR [S. mitis-CSP-2-E1AN11FF12L]”?
A: inhibitory activity against S. pneumoniae ComD1 receptor [1]: no inhibitory activity; inhibitory activity against S. pneumoniae ComD2 receptor [2]: no inhibitory activity; IC50 [3]: > 1000 nM

Q: Which “hemolysis, positive control” value ([4]; 0.01% Triton X in THY media) does the source give for `CC(C)(C)CC(C)(C)c1ccc(OCCO)cc1` [Triton X, reference compound] here?
A: 100% ± 15%

Q: With “EIRQTHNIFFNFFKRR [S. mitis-CSP-2, reference compound]” as the compound, how does the “hemolysis relative to Triton X positive control” value [4, 5] read?
A: -9.6% ±24%

Q: What does the source list for `CC[C@H](C)[C@H](NC(=O)[C@H](C)N)C(=O)N[C@@H](CCCNC(=N)N)C(=O)N[C@@H](CCC(N)=O)C(=O)N[C@H](C(=O)N[C@@H](Cc1c[nH]cn1)C(=O)N[C@@H](CC(N)=O)C(=O)N[C@H](C(=O)N[C@@H](Cc1ccccc1)C(=O)N[C@H](Cc1ccccc1)C(=O)N[C@@H](CC(N)=O)C(=O)N[C@@H](Cc1ccccc1)C(=O)N[C@@H](Cc1ccccc1)C(=O)N[C@@H](CCCCN)C(=O)N[C@@H](CCCNC(=N)N)C(=O)N[C@H](CCCNC(=N)N)C(=O)O)[C@@H](C)CC)[C@@H](C)O` [S. mitis-CSP-2-E1Af10r16] (H-AIRQTHNIF[dF]NFFKR[dR]-OH)?
A: hemolysis relative to Triton X positive control ([4]; inhibitor together with S. mitis-CSP-2, with S. mitis ATCC 49456 culture): -3.1% ±16%; hemolysis relative to Triton X positive control ([4]; inhibitor together with S. mitis-CSP-2 in THY media): -2.3% ±7.0%; hemolysis relative to Triton X positive control [4, 5]: -6.9% ±19%

Q: Which “hemolysis relative to Triton X positive control” value [4, 5] does the source give for `CC[C@H](C)[C@H](NC(=O)[C@H](CC(N)=O)NC(=O)[C@H](Cc1c[nH]cn1)NC(=O)[C@@H](NC(=O)[C@H](CCC(N)=O)NC(=O)[C@H](CCCNC(=N)N)NC(=O)[C@@H](NC(=O)[C@@H](N)CCC(=O)O)[C@@H](C)CC)[C@@H](C)O)C(=O)N[C@@H](Cc1ccccc1)C(=O)N[C@@H](Cc1ccccc1)C(=O)N[C@H](CC(N)=O)C(=O)N[C@@H](Cc1ccccc1)C(=O)N[C@@H](Cc1ccccc1)C(=O)N[C@@H](CCCCN)C(=O)N[C@@H](CCCNC(=N)N)C(=O)N[C@@H](CCCNC(=N)N)C(=O)O` [S. mitis-CSP-2-n11] (H-EIRQTHNIFF[dN]FFKRR-OH) here?
A: -9.8% ±30%
